Results from patent US5238930A, “Alkenoic acid compounds for mechanism-based inactivation of dehydropeptidase activity” (Board of Governors of Wayne State University, priority 1992, dated 1993).
Entries after “also recorded” stand apart in the source; their conditions may differ.

T1: porcine dehydropeptidase I (Sus scrofa, UniProt P22412)
T1 construct: Renal dipeptidase from porcine kidney was purified by a slight modification of the literature report; from tissue; host or cells: porcine kidney
T1 sequence (P22412 17-409): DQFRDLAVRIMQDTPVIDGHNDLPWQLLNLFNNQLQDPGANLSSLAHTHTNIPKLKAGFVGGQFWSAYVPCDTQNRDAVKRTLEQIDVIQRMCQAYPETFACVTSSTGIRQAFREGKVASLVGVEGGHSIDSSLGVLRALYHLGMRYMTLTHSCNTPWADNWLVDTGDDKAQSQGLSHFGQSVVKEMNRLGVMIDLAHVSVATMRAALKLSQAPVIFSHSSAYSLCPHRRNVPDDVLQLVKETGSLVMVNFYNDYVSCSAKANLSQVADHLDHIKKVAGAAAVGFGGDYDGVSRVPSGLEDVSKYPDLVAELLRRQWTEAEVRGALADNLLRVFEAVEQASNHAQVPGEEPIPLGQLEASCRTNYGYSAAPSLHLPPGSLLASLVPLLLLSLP


How the values were obtained:
Test in all cases: Kinetic analysis of interaction (turnover and inactivation) with porcine renal dipeptidase (dehydropeptidase I)
Type in all cases: biochemical
[1] = target: T1, porcine dehydropeptidase I; settings: for kinact: read-out: kinact (first-order rate constant for inactivation) (converted); for Ki: renal dipeptidase assay with glycinyldehydrophenylalanine as substrate, read-out: Ki (reversible inhibitor constant for the formation of the EI complex)
Excerpt: (§1) Km is the Michaelis […] for the turnover, and Ki is the reversible inhibitor constant for the formation of the EI complex. The parameters Kcat and Kinact are first-order rate constant for enzymic turnover and inactivation, respectively. The partition ratio is defined as kcat divided by kinact (i.e., kcat/ kinact).
(§2) Renal dipeptidase from porcine kidney was purified by a slight modification of the literature report (Biochem. J. 257, 361 (1989)). The spectrophotometric assay of renal dipeptidase is carried out according to the method of Campbell et al. (Methods Enzymol. 19, 722 (1970)), using glycinyldehydrophenylalanine as substrate. The substrate was synthesized according to the literature report (Synthesis Commun., 234 (1982)).
(§3) The relevant kinetic parameters for interactions of I and III with porcine dehydropeptidase I are given below.

[2] = substrate: C=C(CC(=O)CC#N)C(=O)O; settings: other: turnover of compound by porcine dehydropeptidase I
Excerpt: as §1, §2, §3

[3] = substrate: C=C(NC(=O)CC#N)C(=O)O; settings: other: turnover of compound by porcine dehydropeptidase I
Excerpt: as §1, §2, §3

| kcat/kinact (partition ratio) ([1]; porcine dehydropeptidase I, kcat divided by kinact) | kinact ([1]; porcine dehydropeptidase I) | Ki ([1]; porcine dehydropeptidase I) | Molecule | inactivation of dehydropeptidase, overall result in words ([1]; conclusion from the kinetic table) | Km [2] | Km [3] |
| --- | --- | --- | --- | --- | --- | --- |
| 217 ± 37 | 0.00252 s⁻¹ | 38 ± 1 µM | C=C(CC(=O)CC#N)C(=O)O [I, 2-Methnylene-5-Cyano-4-Oxopentanoic Acid] | very effective inactivators; also recorded: somewhat better than the ketonic compound (I) |  |  |
|  | 0.00462 s⁻¹ | 18 ± 6 µM | C=C(NC(=O)CC#N)C(=O)O [III, 2-Cyanoacetamidoacrylic Acid] |  |  |  |
|  |  |  | porcine dehydropeptidase I (Sus scrofa) (protein, Renal dipeptidase from porcine kidney was purified by a slight modification of the literature report; from tissue; host or cells: porcine kidney) DQFRDLAVRIMQDTPVIDGHNDLPWQLLNLFNNQLQDPGANLSSLAHTHTNIPKLKAGFVGGQFWSAYVPCDTQNRDAVKRTLEQIDVIQRMCQAYPETFACVTSSTGIRQAFREGKVASLVGVEGGHSIDSSLGVLRALYHLGMRYMTLTHSCNTPWADNWLVDTGDDKAQSQGLSHFGQSVVKEMNRLGVMIDLAHVSVATMRAALKLSQAPVIFSHSSAYSLCPHRRNVPDDVLQLVKETGSLVMVNFYNDYVSCSAKANLSQVADHLDHIKKVAGAAAVGFGGDYDGVSRVPSGLEDVSKYPDLVAELLRRQWTEAEVRGALADNLLRVFEAVEQASNHAQVPGEEPIPLGQLEASCRTNYGYSAAPSLHLPPGSLLASLVPLLLLSLP |  | 10.3 mM | 0.416 mM |
